Results taken from patent publication US6335333B1, “N-arylsulfonylamino acid omega-amides” (Aventis Pharma Deutschland GmbH, priority 1998, dated 2002).
Values after ≈ are worked out from the molar mass of the structure shown. Structures can show the parent of a compound that is named as a salt. Where two headings read alike, the source gives them in different places.

How the values were obtained:
[1] = Determination of the solubility in water (HPLC against external standard); assay type: physicochemical
Experimental: Determination of the solubility in water of the free acid of 2-(4′-chloro-biphenyl-4-sulfonylamino)-5-(5-fluoro-2,3-dihydroindol-1-yl)-5-oxopentanoic acid according to Example 8 and its tromethamine salt according to Example 15
(§1) Approximately 50 mg of test substance according to 1.1a) were initially introduced into a 100 ml Erlenmeyer flask. After addition of 10 ml of water, the mixture was stirred at 25° C. After 2 hours (h) and after 3 h, aliquots were taken and centrifuged. 1 ml each of the supernatant was diluted to 10 ml with mobile phase. The concentration of the active component was determined by means of HPLC against an external standard. Repetition of the experiment.
as §1, with “Approximately 800” for “Approximately 50”, “of the tromethamine salt” for “of test substance”, “to 1.1b)” for “to 1.1a)”, “2 h” for “2 hours (h)”, “to 100” for “to 10”

[2] = molecular target: T1, neutrophil collagenase (MMP-8) (Homo sapiens, UniProt P22894); experiment: Inhibition of enzymatic activity of catalytic domain of neutrophil collagenase (fluorogenic substrate); assay type: biochemical; settings: pH 6.5, 15 min preincubation
T1 construct: catalytic domain of human stromelysin and of neutrophil collagenase; made in house
T1 sequence (P22894 100-262 limits assumed): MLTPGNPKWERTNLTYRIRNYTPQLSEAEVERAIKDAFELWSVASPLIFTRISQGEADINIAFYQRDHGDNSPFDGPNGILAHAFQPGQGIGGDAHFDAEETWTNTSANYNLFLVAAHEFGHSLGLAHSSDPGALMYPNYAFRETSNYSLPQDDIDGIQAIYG
Experimental: (§2) Preparation and determination of the enzymatic activity of the catalytic domain of human stromelysin and of neutrophil collagenase.
(§3) The two enzymes—stromelysin (MMP-3) and neutrophil collagenase (MMP-8)—were prepared according to Ye et al. (Biochemistry; 31 (1992) pages 11231-11235) or Weithmann et al. (Inflamm Res 46(1997) 246-252). For measurement of the inhibitory action on the enzymatic activity, 70 μl of buffer solution and 10 μl of enzyme solution were incubated for 15 minutes with 10 μl of a 10% strength (v/v) aqueous dimethyl sulfoxide solution which optionally contained the enzyme inhibitor. After addition of 10 μl of a 10% strength (v/v) aqueous dimethyl sulfoxide solution which contained 1 mmol/l of the substrate, the enzyme reaction was monitored by fluorescence spectroscopy (328 nm (ex)/393 nm (em)). The enzyme activity was shown as the extinction increase/minute. The IC50 values listed in Table 2 were determined as those inhibitor concentrations which in each case led to a 50% inhibition of the enzyme. The buffer solution contained 0.05% of Brij (Sigma, Deisenhofen, Germany) and 0.1 mol/l of piperazine-N,N′-bis[2-ethanesulfonic acid]/NaOH, 0.1 mol/l of NaCl, 0.01 mol/l of CaCl2 and 0.1 mol/l of piperazine-N,N′-bis[2-ethanesulfonic acid] (pH=6.5). The enzyme solution contained 5 μg/ml of one of the enzyme domains prepared according to Ye et al. The substrate solution contained 1 mmol/l of the fluorogenic substrate (7-methoxycoumarin-4-yl)acetyl-Pro-Leu-Gly-Leu-3-(2′,4′-dinitrophenyl)-L-2,3-diaminopropionyl-Ala-Arg-NH2 (Bachem, Heidelberg, Germany).

[3] = molecular target: T2, human stromelysin (MMP-3) (Homo sapiens, UniProt P08254); experiment: Inhibition of enzymatic activity of catalytic domain of stromelysin (fluorogenic substrate); assay type: biochemical; settings: pH 6.5, 15 min preincubation
T2 construct: enzymatic activity of the catalytic domain of human stromelysin; made in house
T2 sequence (P08254 100-272 limits assumed): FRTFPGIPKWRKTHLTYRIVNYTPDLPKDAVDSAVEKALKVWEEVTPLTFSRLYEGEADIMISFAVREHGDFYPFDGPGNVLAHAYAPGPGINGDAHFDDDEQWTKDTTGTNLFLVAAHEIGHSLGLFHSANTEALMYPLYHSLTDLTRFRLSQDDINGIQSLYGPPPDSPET
Experimental: as §2, §3

IC50 [2] | IC50 [3] | Compound | other results
 |  | O=C(O)[C@H](CCC(=O)N1CCc2ccccc21)NS(=O)(=O)c1ccc(-c2ccc(Cl)cc2)cc1 (stereo in doubt) [Example 8, 2-(4′-Chlorobiphenyl-4-sulfonylamino)-5-(2,3-dihydroindol-1-yl)-5-oxopentanoic acid] | solubility at 2 h ([1]; thermodynamic from solid, water, 25° C., stirred 2 h, mean value from two determinations, read-out: Solubility in water at 25° C. after 2 h): 200 µg/mL (≈ 401 µM); solubility at 3 h ([1]; thermodynamic from solid, water, 25° C., stirred 3 h, mean value from two determinations, read-out: Solubility in water at 25° C. After 3 h): 100 µg/mL (≈ 200 µM); Solubility in water at 25° C. Result ([1]; water, 25° C., data value obtained after 3 h is used): 100 µg/mL (≈ 200 µM)
10 nM | 100 nM | O=C(CC[C@H](NS(=O)(=O)c1ccc(-c2ccccc2)cc1)C(=O)O)Nc1cccc2ccccc12 [Example 1, 2-(biphenyl-4-sulfonylamino)4-(naphthalen-1-ylcarb-amoyl)butyric acid] | 
 | 200 nM | O=C(CC[C@H](NS(=O)(=O)c1ccc(-c2ccccc2)cc1)C(=O)O)Nc1ccc2ccccc2c1 [Example 2, 2-(biphenyl-4-sulfonylamino)-4-(naphthalen-2-yl-carbamoyl)butyric acid] | 
 | 200 nM | O=C(CC[C@H](NS(=O)(=O)c1ccc(-c2ccccc2)cc1)C(=O)O)NCCNc1ccccc1 [Example 3, 2-(biphenyl-4-sulfonylamino)-4-(2-phenylamino-ethylcarbamoyl)butyric acid] | 
 | 100 nM | O=C(CC[C@H](NS(=O)(=O)c1ccc(-c2ccc(Cl)cc2)cc1)C(=O)O)NCCCN1CCOCC1 [Example 4, 2-(4′-chloro-biphenyl-4-sulfonylamino)-4-(3-morpholin-4-ylpropylcarbamoyl)butyric acid] | 
6 nM | 100 nM | O=C(CC[C@H](NS(=O)(=O)c1ccc(-c2ccccc2)cc1)C(=O)O)NCCCN1CCOCC1 [Example 5, 4-(3-(4-(Biphenyl-4-sulfonylamino)-4-carboxybutyrylamino)-propyl)morpholin-4-ium trifluoroacetate] | 
 | 500 nM | O=C(O)[C@H](CCC(=O)N1CCc2ccccc21)NS(=O)(=O)c1ccc(-c2ccccc2)cc1 [Example 6, 2-(Biphenyl-4-sulfonylamino)-5-(2,3-dihydroindol-1-yl)-5-oxopentanecarboxylic acid] | 
4 nM | 40 nM | O=C(O)[C@H](CCC(=O)N1CCc2ccccc21)NS(=O)(=O)c1ccc(-c2ccc(N3CCCC3)cc2)cc1 [Example 7, 5-(2,3-dihydroindol-1-yl)-5-oxo-2-(4′-pyrrolidin-1-yl-biphenyl-4-sulfonyl-amino)pentanoic acid] | 
10 nM | 100 nM | O=C(O)[C@H](CCC(=O)N1CCc2ccccc21)NS(=O)(=O)c1ccc(-c2ccc(Cl)cc2)cc1 [Example 8, 2-(4′-Chlorobiphenyl-4-sulfonylamino)-5-(2,3-dihydroindol-1-yl)-5-oxopentanoic acid] | 
 | 100 nM | O=C(O)[C@H](CCC(=O)N1CCc2ccccc21)NS(=O)(=O)c1ccc(-c2ccc(Br)cc2)cc1 [Example 9, 2-(4′-bromobiphenyl-4-sulfonyl-amino)-5-(2,3-dihydroindol-1-yl)-5-oxopentanoic acid] | 
 | 100 nM | O=C(O)[C@H](CCC(=O)N1CCc2cc(F)ccc21)NS(=O)(=O)c1ccc(-c2ccc(Cl)cc2)cc1 [Example 10, 2-(4′-chloro-biphenyl-4-sulfonylamino)-5-(5-fluoro-2,3-dihydroindol-1-yl)-5-oxopentanoic acid] | 
 | 100 nM | O=C(O)[C@H](CCC(=O)N1CCc2cc(F)ccc21)NS(=O)(=O)c1ccc(-c2ccc(Br)cc2)cc1 [Example 11, 2-(4′-bromobiphenyl-4-sulfonylamino)-5-(5-fluoro-2,3-dihydroindol-1-yl)-5-ox-opentanoic acid] | 
2 nM | 30 nM | O=C(O)[C@H](CCC(=O)N1CCc2cc(F)ccc21)NS(=O)(=O)c1ccc(-c2ccc(N3CCCC3)cc2)cc1 [Example 12, 5-(5-Fluoro-2,3-dihydroindol-1-yl)-5-oxo-2-(4′-pyrrolidin-1-ylbiphenyl-4-sulfonylamino)pentanoic acid] | 
10 nM | 100 nM | O=C(O)[C@H](CCC(=O)N1CCc2cc(F)ccc21)NS(=O)(=O)c1ccc(-c2ccc(N3CCOCC3)cc2)cc1 [Example 13, 5-(5-fluoro-2,3-dihydroindol-1-yl)-2-(4′-morpholin-4-yl-biphenyl-4-sulfonylamino)-5-oxopentanoic acid] | 
10 nM | 50 nM | O=C(O)[C@@H](CCC(=O)N1CCc2ccccc21)NS(=O)(=O)c1ccc(-c2ccc(Cl)cc2)cc1 [Example 14] | 
 |  | NC(CO)(CO)CO.O=C(O)C(CCC(=O)N1CCc2ccccc21)NS(=O)(=O)c1ccc(-c2ccc(Cl)cc2)cc1 (stereo not shown) [Example 15, Tromethamine salt of 2-(4′-chlorobiphenyl-4-sulfonylamino)-5-(2,3-dihydroindol-1-yl)-5-oxopentanoic acid] | Solubility in water at 25° C. After 3 h [1]: 58000 µg/mL; Solubility in water at 25° C. Result [1]: 58000 µg/mL; Solubility in water at 25° C. after 2 h [1]: 58000 µg/mL; Water solubility of tromethamine salt higher than that of the free acid, factor [1]: ~600
